Patent US20230286906A1, “CANNABINOID DERIVATIVES” (CANOPY GROWTH CORPORATION, priority 2019, published 2023)
pIC50: −log10 of the molar value. Read-outs that look alike come from different tables or passages of the source.

Assays:
human CB2 receptor = target: T1, human CB2 receptor (Homo sapiens, UniProt P34972); experiment: CB2 radioligand ([3H]CP 55,940) competitive binding assay; conditions: for Selectivity CB2: fold difference in selectivity between CB1 and CB2 binding, shown in the column of the receptor with higher affinity
T1 construct: host or cells: CHO-K1 (Chinese hamster ovary) cells, stably transfected; membranes prepared in house
Protocol: Compounds of the present disclosure were tested for CB1 receptor binding affinity and for CB2 receptor binding affinity. As used herein, “binding affinity” is represented by the IC50 value, which was experimentally determined as described herein. The lower the IC50 value the higher the binding affinity. A compound of the present disclosure may be said to have “binding selectivity” if it has a higher binding affinity for one receptor compared to the other.
The membranes were prepared from CHO-K1 (Chinese hamster ovary) cells stably transfected with the human CB2 receptor (Cat. #ES-111-C; Perkin Elmer, Boston, Mass.). The cells were grown adherently and maintained in Ham's F12 medium containing 10% fetal bovine serum (FBS), penicillin, streptomycin and geneticin (G418) at 37° C. in a humid atmosphere of 5% CO2 following the manufacturer's instructions.
For membrane preparation the cells were washed with PBS and scraped off the plates in cold homogenization buffer (25 mM HEPES (pH 7.4), 2 mM EDTA) containing protease inhibitor cocktail (Sigma Cat. #P8340). The cell suspension was homogenized with a Pro-PK-01200D Polytron Homogenizer (Pro Scientific) and then centrifuged for 30 min at 120,000×g. The supernatant was discarded and the pellet was re-suspended in the homogenization buffer and stored at −80° C. until the time of use.
In this experiment, 3H radiolabeled CP 55,940, i.e. [3H]CP 55,940 (Perkin Elmer, Boston, Mass.), was used as a radioligand for the CB2 receptor to determine the binding affinity of compounds for the CB2 receptor (Scheme 4; above).
The competition binding experiments (single dose and dose-response) were performed by incubating 0.6 nM of [3H]CP55,940 (specific activity 101 Ci/mmol, Perkin Elmer) and different concentrations of compounds disclosed herein with membranes prepared as above from CHO-K1 cells expressing human CB2 receptor (1 μg of protein/well), 50 mM Tris-HCl (pH 7.4), 5 mM MgCl2, 1 mM CaCl2, and 2 mg/mL BSA.
For the single dose experiments, the compound stocks (usually 10 mM in DMSO) were diluted to working stocks in the binding buffer to give the final compound concentrations of 10 μM and 1 μM. For the dose-response experiments the test compounds were sequentially diluted to provide the desired concentration range for the IC50 determination. In each case the compounds were pre-incubated with the membrane for 20 min, before adding the radioligand.
After incubation with the radioligand for 60 min at 37° C., the incubation was terminated by rapid filtration of assay mixture through MultiScreen®HTS^+ 96-well filter plates (Millipore, Cat. #MSFCNXB), pre-soaked for 60 min with 50 mM Tris-HCl (pH 7.4) containing 0.33% polyethylenimine (PEI). The nonspecific binding (NSB) was determined in the presence of 10 μM unlabelled CP55,940. After drying the filter plate at 50° C. for at least 60 min, the filter-bound radioactivity was determined by scintillation spectrometry using the 1450 MicroBeta Plate Counter (Perkin Elmer, Boston, Mass.). From the dose-response experiments, the IC50 values were determined (see Table 1, CB2 IC50).

human CB1 receptor = target: T2, human CB1 receptor (Homo sapiens, UniProt P21554); experiment: CB1 radioligand ([3H]CP 55,940) competitive binding assay
T2 construct: host or cells: CHO-K1 (Chinese hamster ovary) cells, stably transfected; membranes prepared in house

[1] = displacement of 0.6 nM [3H]CP55,940, CHO-K1 membranes expressing human CB2, read-out: CB2 IC50
[2] = displacement of 0.8 nM [3H]CP 55,940, CHO-K1 membranes expressing human CB1, read-out: CB1 IC50

T2 sequence (P21554 whole entry): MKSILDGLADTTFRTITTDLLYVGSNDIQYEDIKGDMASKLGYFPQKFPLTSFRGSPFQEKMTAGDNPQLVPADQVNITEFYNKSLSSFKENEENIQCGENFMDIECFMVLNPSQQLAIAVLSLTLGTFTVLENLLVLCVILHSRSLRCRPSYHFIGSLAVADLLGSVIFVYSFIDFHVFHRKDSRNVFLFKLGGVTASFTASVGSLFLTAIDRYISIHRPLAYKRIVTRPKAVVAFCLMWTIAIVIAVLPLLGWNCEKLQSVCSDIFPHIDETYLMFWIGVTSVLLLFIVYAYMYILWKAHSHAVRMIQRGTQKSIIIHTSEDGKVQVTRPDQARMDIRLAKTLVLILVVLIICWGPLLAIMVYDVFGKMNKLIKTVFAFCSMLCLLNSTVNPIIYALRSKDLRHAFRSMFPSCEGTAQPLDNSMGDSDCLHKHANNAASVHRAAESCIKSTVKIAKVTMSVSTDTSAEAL
T1 sequence (P34972 whole entry): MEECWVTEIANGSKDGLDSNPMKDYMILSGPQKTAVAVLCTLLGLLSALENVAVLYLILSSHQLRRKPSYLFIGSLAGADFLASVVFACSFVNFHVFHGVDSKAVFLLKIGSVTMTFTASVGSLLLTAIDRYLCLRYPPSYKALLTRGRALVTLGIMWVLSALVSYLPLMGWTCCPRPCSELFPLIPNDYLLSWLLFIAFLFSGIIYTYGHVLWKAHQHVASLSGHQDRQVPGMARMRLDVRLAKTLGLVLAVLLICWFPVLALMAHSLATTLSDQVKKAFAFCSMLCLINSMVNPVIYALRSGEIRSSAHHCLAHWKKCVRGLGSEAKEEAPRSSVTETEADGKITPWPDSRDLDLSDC

Structure (SMILES): CCCCCc1cc(O)c(C/C=C(\C)CCC=C(C)C)c(O)c1C(=O)Nc1cccnc1 [Compound 63, 3-(3,7-dimethylocta-2,6-dien-1-yl)-2,4-dihydroxy-6-pentyl-N-(pyridin-3-yl) benzamide]
- pIC50 (human CB2 receptor): 5.30 to 6.00
- Selectivity CB2 (human CB2 receptor): 2.20
- pIC50 (human CB1 receptor): 5.30 to 6.00

Structure (SMILES): CCCCCc1cc(O)c(C/C=C(\C)CCC=C(C)C)c(O)c1C(=O)Nc1ccc(F)cc1 [Compound 60, 3-(3,7-dimethylocta-2,6-dien-1-yl)-N-(4-fluorophenyl)-2,4-dihydroxy-6-pentyl benzamide]
- pIC50 (human CB2 receptor; [1]): > 6.30
- Selectivity CB2 (human CB2 receptor): 2.52
- pIC50 (human CB1 receptor; [2]): 5.30 to 6.00

Structure (SMILES): CCCCCc1cc(O)c(C/C=C(\C)CCC=C(C)C)c(O)c1C(=O)NC1CC1 [Compound 6, N-cyclopropyl-3-(3,7-dimethylocta-2,6-dien-1-yl)-2,4-dihydroxy-6-pentylbenzamide]
- pIC50 (human CB2 receptor; [1]): 5.30 to 6.00
- Selectivity CB2 (human CB2 receptor): 3.41
- pIC50 (human CB1 receptor; [2]): 5.30 to 6.00

Structure (SMILES): CCCCCc1cc(O)c(C/C=C(\C)CCC=C(C)C)c(O)c1C(=O)N1CCCC1 [Compound 41, (3-(3,7-dimethylocta-2,6-dien-1-yl)-2,4-dihydroxy-6-pentylphenyl)(pyrrolidin-1-yl)methanone]
- pIC50 (human CB2 receptor; [1]): 5.30 to 6.00
- Selectivity CB2 (human CB2 receptor): 11.54
- pIC50 (human CB1 receptor; [2]): < 5.30

Structure (SMILES): CCCCCc1c(CN(C)C(=O)OC)c(O)c(CC=C(C)CCC=C(C)C)c(O)c1CN(C)C(=O)OC [Compound 59, dimethyl ((5-(3,7-dimethylocta-2,6-dien-1-yl)-4,6-dihydroxy-2-pentyl-1,3-phenylene)bis(methylene))bis(methylcarbamate)]
- pIC50 (human CB2 receptor; [1]): 6.00 to 6.30
- Selectivity CB2 (human CB2 receptor): 1.49
- pIC50 (human CB1 receptor; [2]): 6.00 to 6.30

Structure (SMILES): CCCCCc1cc(O)c(C/C=C(\C)CCC=C(C)C)c(O)c1C(=O)NCc1ccccc1 [Compound 14, N-benzyl-3-(3,7-dimethylocta-2,6-dien-1-yl)-2,4-dihydroxy-6-pentylbenzamide]
- pIC50 (human CB2 receptor; [1]): 5.30 to 6.00
- Selectivity CB2 (human CB2 receptor): 8.57
- pIC50 (human CB1 receptor; [2]): < 5.30

Structure (SMILES): CCCCCc1cc(O)c(C/C=C(\C)CCC=C(C)C)c(O)c1C(=O)Nc1ccccc1 [Compound 10, 3-(3,7-dimethylocta-2,6-dien-1-yl)-2,4-dihydroxy-6-pentyl-N-phenylbenzamide]
- pIC50 (human CB2 receptor; [1]): 5.30 to 6.00
- Selectivity CB2 (human CB2 receptor): 4.86
- pIC50 (human CB1 receptor; [2]): < 5.30

Structure (SMILES): CCCCCc1cc(O)c(C/C=C(\C)CCC=C(C)C)c(O)c1C(=O)NCc1cccnc1 [Compound 62, 3-(3,7-dimethylocta-2,6-dien-1-yl)-2,4-dihydroxy-6-pentyl-N-(pyridin-3-ylmethyl)benzamide]
- pIC50 (human CB2 receptor; [1]): 6.00 to 6.30
- Selectivity CB2 (human CB2 receptor): 4.71
- pIC50 (human CB1 receptor; [2]): 5.30 to 6.00

Structure (SMILES): CCCCCc1cc(O)c(C/C=C(\C)CCC=C(C)C)c(O)c1C(=O)NCc1ccc(F)cc1 [Compound 61, 3-(3,7-dimethylocta-2,6-dien-1-yl)-N-(4-fluorobenzyl)-2,4-dihydroxy-6-pentylbenzamide]
- pIC50 (human CB2 receptor; [1]): > 6.30
- Selectivity CB2 (human CB2 receptor): 118.29
- pIC50 (human CB1 receptor; [2]): 6.00 to 6.30

Structure (SMILES): CCCCCc1cc(O)c(C/C=C(\C)CCC=C(C)C)c(O)c1C(=O)N1CCOCC1 [Compound 39]
- pIC50 (human CB2 receptor; [1]): > 6.30
- Selectivity CB2 (human CB2 receptor): 24.32
- pIC50 (human CB1 receptor; [2]): < 5.30

Structure (SMILES): CCCCCc1cc(O)c(C/C=C(\C)CCC=C(C)C)c(O)c1C(=O)Nc1ccc(OC)cc1 [Compound 11, 3-(3,7-dimethylocta-2,6-dien-1-yl)-2,4-dihydroxy-N-(4-methoxyphenyl)-6-pentylbenzamide]
- pIC50 (human CB2 receptor; [1]): 6.00 to 6.30
- Selectivity CB2 (human CB2 receptor): 2.35
- pIC50 (human CB1 receptor; [2]): 5.30 to 6.00

Structure (SMILES): CCCCCc1cc(O)c(C/C=C(\C)CCC=C(C)C)c(O)c1C(=O)N(CC)CC [Compound 50, 3-(3,7-dimethylocta-2,6-dien-1-yl)-N,N-diethyl-2,4-dihydroxy-6-pentylbenzamide]
- pIC50 (human CB2 receptor): 5.30 to 6.00
- Selectivity CB2 (human CB2 receptor): 4.80
- pIC50 (human CB1 receptor): < 5.30

Structure (SMILES): CCCCCc1cc(O)c(C/C=C(\C)CCC=C(C)C)c(O)c1C(=O)NC [Compound 1, 3-(3,7-dimethylocta-2,6-dien-1-yl)-2,4-dihydroxy-N-methyl-6-pentylbenzamide]
- pIC50 (human CB2 receptor; [1]): 5.30 to 6.00
- Selectivity CB2 (human CB2 receptor): 4.06
- pIC50 (human CB1 receptor; [2]): < 5.30

Structure (SMILES): CCCCCc1cc(O)c(CC=C(C)CCC=C(C)C)c(O)c1CN(C)C(=O)OC [Compound 58, methyl (3-(3,7-dimethylocta-2,6-dien-1-yl)-2,4-dihydroxy-6-pentylbenzyl)(methyl)carbamate]
- pIC50 (human CB2 receptor; [1]): > 6.30
- Selectivity CB2 (human CB2 receptor): 30.00
- pIC50 (human CB1 receptor; [2]): 5.30 to 6.00
